The values that follow come from patent publication US20240336611A1 (Insilico Medicine IP Limited, priority 2021, published 2024).

For orientation: IC50 means the point on the concentration scale where inhibition reaches its midpoint. High values mean lower potency, low ones higher potency.

The target of the experiment is T1, TNIK kinase [amino acid sequence (1-367), Invitrogen] (Homo sapiens, UniProt Q9UKE5).
T1 construct: purchased Invitrogen
T1 sequence (Q9UKE5 1-367): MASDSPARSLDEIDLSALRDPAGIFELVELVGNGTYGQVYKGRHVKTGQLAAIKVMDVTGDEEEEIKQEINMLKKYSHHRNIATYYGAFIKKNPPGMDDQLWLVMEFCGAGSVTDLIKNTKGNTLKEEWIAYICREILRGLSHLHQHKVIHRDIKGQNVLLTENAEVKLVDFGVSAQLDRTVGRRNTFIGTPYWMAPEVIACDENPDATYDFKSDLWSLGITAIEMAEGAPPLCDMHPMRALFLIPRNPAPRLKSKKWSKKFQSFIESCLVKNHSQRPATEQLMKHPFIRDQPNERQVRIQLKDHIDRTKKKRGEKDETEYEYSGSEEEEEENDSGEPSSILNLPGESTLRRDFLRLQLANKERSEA
The experiment is described as follows: TNIK kinase inhibition assay (Z-lyte FRET-peptide). Format: biochemical. As to conditions: 0.625 nM TNIK kinase, 2 μM Ser/Thr 7 peptide, 64 μM ATP, one hour at room temperature. On the procedure: Z-lyte assay kit was purchased from Invitrogen. A site-specific protease recognizes and cleaves non-phosphorylated FRET-peptides. Phosphorylation of FRET-peptides suppresses cleavage by protease and will maintain FRET from donor to acceptor.
5 μl of Development Reagent A solution was then added to cleave non-phosphorylated peptide with a dilution 1:65000 in Development Buffer B. The assay plate was incubated at room temperature for another one hour and then read in the Envision plate reader (PerkinElmer).
With `O=C(Nc1ccc(N2CCC2)cn1)c1coc(-c2c(-c3ccc(F)cc3)ncn2C2CC(F)(F)C2)n1` [Compound 69, N-(5-(azetidin-1-yl)pyridin-2-yl)-2-(1-(3,3-difluorocyclobutyl)-4-(4-fluorophenyl)-1H-imidazol-5-yl)oxazole-4-carboxamide], the IC50 was > 150 nM. For `CC(C)n1cnc(-c2ccc(F)cc2)c1-c1nc(C(=O)Nc2ccc(N3C[C@H]4CC[C@@H](C3)N4C)nc2)c[nH]1` [Compound 25, 5′-(4-fluorophenyl)-3′-isopropyl-N-(6-((1R,5S)-8-methyl-3,8-diazabicyclo[3.2.1]octan-3-yl)pyridin-3-yl)-1H,3′H-[2,4′-biimidazole]-4-carboxamide] the value was 1 to 12 nM. With `CC(C)n1cnc(-c2ccc(F)cc2)c1-c1csc(C(=O)Nc2ccc(N3C[C@H]4CC[C@@H](C3)N4C)cn2)n1` [Compound 38, 4-(4-(4-fluorophenyl)-1-isopropyl-1H-imidazol-5-yl)-N-(5-((1R,5S)-8-methyl-3,8-diazabicyclo[3.2.1]octan-3-yl)pyridin-2-yl)thiazole-2-carboxamide], the IC50 fell in the range of 1 to 12 nM. As for `CC(C)n1cnc(-c2ccc(F)cc2)c1-c1nc(C(=O)Nc2ccc(C3CCN(C)CC3)cn2)c[nH]1` [Compound 52, 5′-(4-fluorophenyl)-3′-isopropyl-N-(5-(1-methylpiperidin-4-yl)pyridin-2-yl)-1H,3′H-[2,4′-biimidazole]-4-carboxamide], the IC50 fell in the range of 1 to 12 nM. For `O=C(Nc1ccc(N2CCC2)cn1)c1c[nH]c(-c2c(-c3ccc(F)cc3)ncn2C2CC(F)(F)C2)n1` [Compound 73, N-(5-(azetidin-1-yl)pyridin-2-yl)-3′-(3,3-difluorocyclobutyl)-5′-(4-fluorophenyl)-1H,3′H-[2,4′-biimidazole]-4-carboxamide] the value was 12 to 150 nM. Molecule “2-(4-(4-fluorophenyl)-1-isopropyl-1H-imidazol-5-yl)-N-(5-((1R,5S)-8-methyl-8-azabicyclo[3.2.1]octan-3-yl)pyridin-2-yl)oxazole-4-carboxamide [Compound 62]” had an IC50 of 12 to 150 nM. On to `CN1C2CC1CN(c1ccc(NC(=O)c3c[nH]c(-c4c(-c5ccc(F)cc5)ncn4C4CCC4)n3)nc1)C2` [Compound 50, 3′-cyclobutyl-5′-(4-fluorophenyl)-N-(5-(6-methyl-3,6-diazabicyclo[3.1.1]heptan-3-yl)pyridin-2-yl)-1H,3′H-[2,4′-biimidazole]-4-carboxamide], for which the IC50 lay in the range of 1 to 12 nM. For `O=C(NC1CCOCC1)c1csc(-c2c(-c3ccc(F)cc3)ncn2C2CC(F)(F)C2)n1` [Compound 77, 2-(1-(3,3-difluorocyclobutyl)-4-(4-fluorophenyl)-1H-imidazol-5-yl)-N-(tetrahydro-2H-pyran-4-yl)thiazole-4-carboxamide] the value was > 150 nM. Turning to `CC(C)c1onc(-c2ccc(F)cc2)c1-c1nc(C(=O)Nc2ccc(C3CN(C)C3)cn2)co1` [Compound 107, 2-(3-(4-fluorophenyl)-5-isopropylisoxazol-4-yl)-N-(5-(1-methylazetidin-3-yl)pyridin-2-yl)oxazole-4-carboxamide], the IC50 lay within 12 to 150 nM. Take `CC(C)n1cnc(-c2ccc(F)cc2)c1-c1ncc(C(=O)Nc2ccc(N3CCC4(CC3)CN(C)C4)cc2)[nH]1` [Compound 19, 5′-(4-fluorophenyl)-3′-isopropyl-N-(4-(2-methyl-2,7-diazaspiro[3.5]nonan-7-yl)phenyl)-1H,3′H-[2,4′-biimidazole]-5-carboxamide]: the concentration for half-maximal inhibition (IC50) was 1 to 12 nM.

`[2H]C([2H])([2H])N1CC(c2ccc(NC(=O)c3c[nH]c(-c4c(-c5ccc(F)cc5)ncn4C(C)C)n3)nc2)C1` [Compound 113] registered an IC50 of 12 to 150 nM. With `O=C(Nc1ccc(N2CCOCC2)cn1)c1c[nH]c(-c2c(-c3ccc(F)cc3)ncn2C2CC(F)(F)C2)n1` [Compound 67, 3′-(3,3-difluorocyclobutyl)-5′-(4-fluorophenyl)-N-(5-morpholinopyridin-2-yl)-1H,3′H-[2,4′-biimidazole]-4-carboxamide] the figure was 12 to 150 nM. For `O=C(Nc1ccc(N2CCOCC2)cn1)c1coc(-c2c(-c3ccc(F)cc3)ncn2C2COC2)n1` [Compound 71, 2-(4-(4-fluorophenyl)-1-(oxetan-3-yl)-1H-imidazol-5-yl)-N-(5-morpholinopyridin-2-yl)oxazole-4-carboxamide] the value was > 150 nM.

`CC(C)n1cnc(-c2ccc(F)cc2)c1-c1nc(C(=O)Nc2ccc(C3C[C@H]4CC[C@@H](C3)N4C)cn2)cs1` (stereo partly drawn) [Compound 60, 2-(4-(4-fluorophenyl)-1-isopropyl-1H-imidazol-5-yl)-N-(5-((1R,5S)-8-methyl-8-azabicyclo[3.2.1]octan-3-yl)pyridin-2-yl)thiazole-4-carboxamide] registered an IC50 of 1 to 12 nM.

Molecule `CC(C)n1cnc(-c2ccc(F)cc2)c1-c1nc(C(=O)Nc2ccc(N3CCN(C)CC3)c(F)c2)c[nH]1` [Compound 16, N-(3-fluoro-4-(4-methylpiperazin-1-yl)phenyl)-5′-(4-fluorophenyl)-3′-isopropyl-1H,3′H-[2,4′-biimidazole]-4-carboxamide] registered an IC50 of 1 to 12 nM.

In turn, `CN1CCN(c2ccc(NC(=O)c3csc(-c4c(-c5ccc(F)cc5)nc5n4CCOC5)n3)nc2)CC1` [Compound 29, 2-(2-(4-fluorophenyl)-6,8-dihydro-5H-imidazo[2,1-c][1,4]oxazin-3-yl)-N-(5-(4-methylpiperazin-1-yl)pyridin-2-yl)thiazole-4-carboxamide] came in with an IC50 of 1 to 12 nM. Consider `[2H]C([2H])([2H])N1CC(c2ccc(NC(=O)c3csc(-c4c(-c5ccc(F)cc5)ncn4C([2H])(C)C)n3)nc2)C1` [Compound 110, 2-[3-(1-deuterio-1-methyl-ethyl)-5-(4-fluorophenyl)imidazol-4-yl]-N-[5-[1-(trideuteriomethyl)azetidin-3-yl]-2-pyridyl]thiazole-4-carboxamide], for which the IC50 lay in the range of 1 to 12 nM. In turn, `[2H]C([2H])([2H])N1CC(c2ccc(NC(=O)c3c[nH]c(-c4c(-c5ccc(F)cc5)ncn4C4CCC4)n3)c(F)c2)C1` [Compound 120, 2-[3-cyclobutyl-5-(4-fluorophenyl)imidazol-4-yl]-N-[2-fluoro-4-[1-(trideuteriomethyl)azetidin-3-yl]phenyl]-1H-imidazole-4-carboxamide] came in with an IC50 of 1 to 12 nM.

Regarding `CC(C)n1cnc(-c2ccc(F)cc2)c1-c1ncc(C(=O)Nc2ccc(N3CCN(C)CC3)cc2)s1` [Compound 3, 2-(4-(4-fluorophenyl)-1-isopropyl-1H-imidazol-5-yl)-N-(4-(4-methylpiperazin-1-yl)phenyl)thiazole-5-carboxamide], the IC50 is > 150 nM. As for `O=C(Nc1ccc(N2CCC2)cn1)c1csc(-c2c(-c3ccc(F)cc3)ncn2C2COC2)n1` [Compound 75, N-(5-(azetidin-1-yl)pyridin-2-yl)-2-(4-(4-fluorophenyl)-1-(oxetan-3-yl)-1H-imidazol-5-yl)thiazole-4-carboxamide], the IC50 was in the range of 1 to 12 nM.

Take `CC(C)n1cnc(-c2ccc(F)cc2)c1-c1nc(C(=O)Nc2ccc(N3CCN(C)CC3)nc2)c[nH]1` [Compound 22, 5′-(4-fluorophenyl)-3′-isopropyl-N-(6-(4-methylpiperazin-1-yl)pyridin-3-yl)-1H,3′H-[2,4′-biimidazole]-4-carboxamide]: the IC50 was 12 to 150 nM.
